We go through three molecules from BindingDB's records for PubMed 20126400 (University of Oklahoma, 2010).

Common to all, as to assay: Ray2010 Assay 74
Experiment [1] has as its target Sodium-dependent noradrenaline transporter (Homo sapiens, UniProt P23975). From the text: (§1) Table S2 shows raw Ki data for the current study combined with data collected from the literature for the ten additional compounds.
In experiment [2] the target is T1, 5-hydroxytryptamine receptor 3A (Homo sapiens, UniProt P46098).
T1 sequence (P46098 whole entry): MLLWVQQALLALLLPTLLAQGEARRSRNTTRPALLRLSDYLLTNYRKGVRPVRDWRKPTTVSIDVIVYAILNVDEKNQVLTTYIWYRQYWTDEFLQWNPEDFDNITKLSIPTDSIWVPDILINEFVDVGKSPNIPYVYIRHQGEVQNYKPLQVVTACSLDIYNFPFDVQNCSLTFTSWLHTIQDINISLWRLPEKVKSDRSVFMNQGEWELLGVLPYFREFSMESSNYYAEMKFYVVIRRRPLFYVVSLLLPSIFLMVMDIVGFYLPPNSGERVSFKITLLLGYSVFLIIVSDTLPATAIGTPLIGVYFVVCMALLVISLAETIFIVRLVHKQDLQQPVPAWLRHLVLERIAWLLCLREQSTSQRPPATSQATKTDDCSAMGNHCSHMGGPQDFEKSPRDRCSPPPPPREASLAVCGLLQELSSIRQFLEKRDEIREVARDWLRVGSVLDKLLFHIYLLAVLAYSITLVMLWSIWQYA
Source text: as §1

Experiment [3] concerns the target 5-hydroxytryptamine receptor 1E (Homo sapiens, UniProt P28566).
Source text: as §1

The target in experiment [4] is T2, Muscarinic acetylcholine receptor M2 (Homo sapiens, UniProt P08172).
T2 sequence (P08172 whole entry): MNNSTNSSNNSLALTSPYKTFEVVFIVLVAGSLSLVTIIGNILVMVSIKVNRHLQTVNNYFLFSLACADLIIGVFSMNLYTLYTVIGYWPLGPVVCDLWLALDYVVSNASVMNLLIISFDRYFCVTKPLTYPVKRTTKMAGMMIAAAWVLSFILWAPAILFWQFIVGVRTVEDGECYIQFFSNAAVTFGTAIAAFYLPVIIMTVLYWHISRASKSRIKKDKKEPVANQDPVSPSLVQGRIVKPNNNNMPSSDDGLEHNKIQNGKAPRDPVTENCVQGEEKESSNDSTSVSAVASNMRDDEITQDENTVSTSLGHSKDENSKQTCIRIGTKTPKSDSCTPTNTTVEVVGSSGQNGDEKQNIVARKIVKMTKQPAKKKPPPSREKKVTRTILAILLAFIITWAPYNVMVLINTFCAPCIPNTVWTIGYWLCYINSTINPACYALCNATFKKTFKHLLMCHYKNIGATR
Source text: as §1

The next experiment deals with Histamine H2 receptor (Homo sapiens, UniProt P25021).
Source text: as §1

The target of experiment [5] is Sodium-dependent serotonin transporter (Homo sapiens, UniProt P31645).
Source text: as §1

Experiment [6] deals with Delta-type opioid receptor (Homo sapiens, UniProt P41143).
Source text: as §1

The target in the next experiment is D(1A) dopamine receptor (Homo sapiens, UniProt P21728).
Source text: as §1

Experiment [7] deals with Glutamate receptor ionotropic, NMDA 2A (Homo sapiens, UniProt Q12879).
Source text: as §1

Experiment [8] deals with Kappa-type opioid receptor (Homo sapiens, UniProt P41145).
Source text: as §1

Experiment [9] addresses T3, Gamma-aminobutyric acid receptor subunit alpha-1 (Homo sapiens, UniProt P14867).
T3 sequence (P14867 whole entry): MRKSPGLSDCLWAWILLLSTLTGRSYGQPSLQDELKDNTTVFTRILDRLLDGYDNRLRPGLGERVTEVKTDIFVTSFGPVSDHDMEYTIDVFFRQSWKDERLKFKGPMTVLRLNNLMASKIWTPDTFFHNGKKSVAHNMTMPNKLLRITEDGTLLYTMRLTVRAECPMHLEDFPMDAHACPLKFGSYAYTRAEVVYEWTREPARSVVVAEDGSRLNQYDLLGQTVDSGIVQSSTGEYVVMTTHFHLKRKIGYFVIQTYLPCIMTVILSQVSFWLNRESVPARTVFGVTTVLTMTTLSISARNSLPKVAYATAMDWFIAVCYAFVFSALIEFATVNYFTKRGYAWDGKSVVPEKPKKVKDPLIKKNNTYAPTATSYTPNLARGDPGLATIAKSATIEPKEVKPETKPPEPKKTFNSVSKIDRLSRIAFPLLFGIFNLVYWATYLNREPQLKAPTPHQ
Source text: as §1

The target of another experiment is Histamine H4 receptor (Homo sapiens, UniProt Q9H3N8).
Source text: as §1

Experiment [10] concerns the target Sodium-dependent dopamine transporter (Homo sapiens, UniProt Q01959).
Source text: as §1

The next experiment addresses Mu-type opioid receptor (Homo sapiens, UniProt P35372).
Source text: as §1

Another experiment deals with T4, D(4) dopamine receptor (Homo sapiens, UniProt P21917).
T4 sequence (P21917 whole entry): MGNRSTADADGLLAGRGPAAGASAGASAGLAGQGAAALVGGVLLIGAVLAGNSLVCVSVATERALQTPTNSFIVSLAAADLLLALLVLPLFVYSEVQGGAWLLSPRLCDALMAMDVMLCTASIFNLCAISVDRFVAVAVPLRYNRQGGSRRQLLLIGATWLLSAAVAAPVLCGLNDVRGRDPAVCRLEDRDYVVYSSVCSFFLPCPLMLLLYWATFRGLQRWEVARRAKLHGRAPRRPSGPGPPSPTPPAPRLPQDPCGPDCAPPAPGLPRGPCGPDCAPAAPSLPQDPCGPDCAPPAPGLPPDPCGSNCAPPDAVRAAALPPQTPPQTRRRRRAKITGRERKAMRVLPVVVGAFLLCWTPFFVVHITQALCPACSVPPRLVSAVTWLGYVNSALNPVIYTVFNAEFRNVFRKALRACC
Source text: as §1

For experiment [11], the target named is Beta-1 adrenergic receptor (Homo sapiens, UniProt P08588).
Source text: as §1

Experiment [12] addresses 5-hydroxytryptamine receptor 1D (Homo sapiens, UniProt P28221).
Source text: as §1

Experiment [13] concerns the target 5-hydroxytryptamine receptor 6 (Homo sapiens, UniProt P50406).
Source text: as §1

The target in another experiment is D(1B) dopamine receptor (Homo sapiens, UniProt P21918).
Source text: as §1

Sequence of Delta-type opioid receptor (P41143 whole entry): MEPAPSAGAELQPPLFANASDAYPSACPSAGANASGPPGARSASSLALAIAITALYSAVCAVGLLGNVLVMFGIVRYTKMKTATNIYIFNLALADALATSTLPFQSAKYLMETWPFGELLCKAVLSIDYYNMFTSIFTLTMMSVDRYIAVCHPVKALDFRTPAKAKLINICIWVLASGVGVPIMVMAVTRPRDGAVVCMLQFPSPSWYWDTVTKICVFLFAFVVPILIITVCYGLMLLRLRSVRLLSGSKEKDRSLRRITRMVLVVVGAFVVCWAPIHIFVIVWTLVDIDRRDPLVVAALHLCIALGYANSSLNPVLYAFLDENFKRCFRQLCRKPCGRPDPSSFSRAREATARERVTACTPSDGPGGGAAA
Sequence of Kappa-type opioid receptor (P41145 whole entry): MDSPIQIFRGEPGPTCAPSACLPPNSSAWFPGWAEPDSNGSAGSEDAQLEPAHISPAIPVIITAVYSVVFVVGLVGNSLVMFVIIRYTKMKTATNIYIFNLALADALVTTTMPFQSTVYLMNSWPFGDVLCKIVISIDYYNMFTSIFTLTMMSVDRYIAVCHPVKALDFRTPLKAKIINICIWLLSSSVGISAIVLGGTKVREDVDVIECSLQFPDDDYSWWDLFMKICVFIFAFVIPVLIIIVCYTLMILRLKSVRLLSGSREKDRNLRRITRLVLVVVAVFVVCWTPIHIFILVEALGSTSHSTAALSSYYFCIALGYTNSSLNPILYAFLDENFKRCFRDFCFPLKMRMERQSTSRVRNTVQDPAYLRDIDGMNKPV
Sequence of D(1B) dopamine receptor (P21918 whole entry): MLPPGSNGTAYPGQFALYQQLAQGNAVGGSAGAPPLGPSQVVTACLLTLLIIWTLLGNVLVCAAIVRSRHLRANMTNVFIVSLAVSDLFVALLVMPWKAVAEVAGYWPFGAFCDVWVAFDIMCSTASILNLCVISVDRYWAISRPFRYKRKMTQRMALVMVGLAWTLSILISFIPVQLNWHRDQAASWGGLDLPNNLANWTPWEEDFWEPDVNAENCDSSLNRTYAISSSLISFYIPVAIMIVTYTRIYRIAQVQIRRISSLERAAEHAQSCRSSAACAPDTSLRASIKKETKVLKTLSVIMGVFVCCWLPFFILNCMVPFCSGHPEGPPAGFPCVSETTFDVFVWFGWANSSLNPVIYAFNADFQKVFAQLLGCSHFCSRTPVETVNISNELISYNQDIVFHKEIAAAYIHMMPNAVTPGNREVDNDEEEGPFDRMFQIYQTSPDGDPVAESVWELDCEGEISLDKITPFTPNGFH
Sequence of 5-hydroxytryptamine receptor 6 (P50406 whole entry): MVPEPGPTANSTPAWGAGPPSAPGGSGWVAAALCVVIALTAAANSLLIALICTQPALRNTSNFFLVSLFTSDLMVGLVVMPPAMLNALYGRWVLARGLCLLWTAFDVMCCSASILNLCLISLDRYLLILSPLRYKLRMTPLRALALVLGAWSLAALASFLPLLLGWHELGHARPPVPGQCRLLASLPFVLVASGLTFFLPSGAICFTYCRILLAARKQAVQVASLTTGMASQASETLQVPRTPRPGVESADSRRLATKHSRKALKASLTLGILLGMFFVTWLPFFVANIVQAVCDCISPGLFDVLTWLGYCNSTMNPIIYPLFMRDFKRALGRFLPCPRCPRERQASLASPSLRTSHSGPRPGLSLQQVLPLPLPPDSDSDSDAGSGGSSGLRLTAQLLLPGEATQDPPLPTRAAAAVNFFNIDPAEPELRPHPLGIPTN
Sequence of D(1A) dopamine receptor (P21728 whole entry): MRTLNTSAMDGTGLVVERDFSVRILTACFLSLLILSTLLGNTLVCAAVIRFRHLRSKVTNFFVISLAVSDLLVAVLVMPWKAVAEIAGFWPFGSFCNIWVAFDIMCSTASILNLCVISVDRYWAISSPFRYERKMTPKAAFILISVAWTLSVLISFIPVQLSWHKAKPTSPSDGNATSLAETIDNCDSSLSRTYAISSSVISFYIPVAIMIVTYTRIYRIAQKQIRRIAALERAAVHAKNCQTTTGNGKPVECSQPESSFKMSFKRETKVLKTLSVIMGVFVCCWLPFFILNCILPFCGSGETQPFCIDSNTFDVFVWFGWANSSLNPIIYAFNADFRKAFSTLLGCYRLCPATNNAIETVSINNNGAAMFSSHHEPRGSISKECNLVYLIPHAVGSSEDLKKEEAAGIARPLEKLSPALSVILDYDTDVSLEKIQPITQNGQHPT
Sequence of Histamine H2 receptor (P25021 whole entry): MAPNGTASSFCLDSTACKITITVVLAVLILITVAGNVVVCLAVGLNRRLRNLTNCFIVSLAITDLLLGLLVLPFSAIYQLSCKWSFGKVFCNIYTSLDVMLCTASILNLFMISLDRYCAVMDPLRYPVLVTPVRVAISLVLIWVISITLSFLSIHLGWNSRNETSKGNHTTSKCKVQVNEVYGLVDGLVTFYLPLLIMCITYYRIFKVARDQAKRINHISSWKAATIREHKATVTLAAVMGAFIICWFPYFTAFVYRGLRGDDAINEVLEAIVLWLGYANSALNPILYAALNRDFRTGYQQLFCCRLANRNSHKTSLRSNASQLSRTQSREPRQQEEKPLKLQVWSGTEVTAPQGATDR
Sequence of Beta-1 adrenergic receptor (P08588 whole entry): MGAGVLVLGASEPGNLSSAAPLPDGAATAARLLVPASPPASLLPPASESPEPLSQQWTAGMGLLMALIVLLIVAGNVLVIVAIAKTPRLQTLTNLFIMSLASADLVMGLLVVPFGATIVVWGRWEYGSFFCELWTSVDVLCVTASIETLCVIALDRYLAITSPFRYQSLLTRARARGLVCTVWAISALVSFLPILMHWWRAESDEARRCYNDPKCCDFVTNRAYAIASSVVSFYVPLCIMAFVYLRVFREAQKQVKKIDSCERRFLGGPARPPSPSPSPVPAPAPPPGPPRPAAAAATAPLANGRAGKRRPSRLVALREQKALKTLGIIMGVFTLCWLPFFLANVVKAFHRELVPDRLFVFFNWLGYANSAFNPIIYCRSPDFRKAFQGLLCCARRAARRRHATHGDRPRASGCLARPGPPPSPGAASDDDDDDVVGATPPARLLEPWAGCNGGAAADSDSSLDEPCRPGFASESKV
Sequence of Sodium-dependent dopamine transporter (Q01959 whole entry): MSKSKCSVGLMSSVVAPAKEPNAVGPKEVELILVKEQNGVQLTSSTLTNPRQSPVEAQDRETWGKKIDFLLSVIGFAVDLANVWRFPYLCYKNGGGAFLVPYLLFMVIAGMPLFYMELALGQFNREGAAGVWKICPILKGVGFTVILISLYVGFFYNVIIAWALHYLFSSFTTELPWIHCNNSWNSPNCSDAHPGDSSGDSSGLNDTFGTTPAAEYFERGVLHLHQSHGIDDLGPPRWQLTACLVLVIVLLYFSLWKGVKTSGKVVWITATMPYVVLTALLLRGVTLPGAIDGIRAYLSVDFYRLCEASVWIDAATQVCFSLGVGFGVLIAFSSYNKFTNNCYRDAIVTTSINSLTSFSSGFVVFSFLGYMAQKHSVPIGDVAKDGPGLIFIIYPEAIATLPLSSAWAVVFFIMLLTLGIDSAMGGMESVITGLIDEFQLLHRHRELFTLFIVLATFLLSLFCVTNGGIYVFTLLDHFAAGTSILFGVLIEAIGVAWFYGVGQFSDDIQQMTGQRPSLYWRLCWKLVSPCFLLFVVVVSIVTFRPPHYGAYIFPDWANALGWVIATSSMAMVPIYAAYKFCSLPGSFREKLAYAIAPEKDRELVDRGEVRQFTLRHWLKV
Sequence of Histamine H4 receptor (Q9H3N8 whole entry): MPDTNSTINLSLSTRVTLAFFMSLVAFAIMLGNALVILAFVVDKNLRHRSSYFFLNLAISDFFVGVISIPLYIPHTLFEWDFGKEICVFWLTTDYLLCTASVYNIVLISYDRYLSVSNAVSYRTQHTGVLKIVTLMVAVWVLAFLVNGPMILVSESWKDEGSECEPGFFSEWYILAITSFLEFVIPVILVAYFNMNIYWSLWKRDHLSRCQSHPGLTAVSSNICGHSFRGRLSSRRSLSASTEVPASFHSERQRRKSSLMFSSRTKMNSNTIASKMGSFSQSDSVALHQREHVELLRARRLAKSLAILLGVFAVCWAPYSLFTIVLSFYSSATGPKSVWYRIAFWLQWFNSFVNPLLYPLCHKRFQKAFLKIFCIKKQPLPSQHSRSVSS
Sequence of 5-hydroxytryptamine receptor 1D (P28221 whole entry): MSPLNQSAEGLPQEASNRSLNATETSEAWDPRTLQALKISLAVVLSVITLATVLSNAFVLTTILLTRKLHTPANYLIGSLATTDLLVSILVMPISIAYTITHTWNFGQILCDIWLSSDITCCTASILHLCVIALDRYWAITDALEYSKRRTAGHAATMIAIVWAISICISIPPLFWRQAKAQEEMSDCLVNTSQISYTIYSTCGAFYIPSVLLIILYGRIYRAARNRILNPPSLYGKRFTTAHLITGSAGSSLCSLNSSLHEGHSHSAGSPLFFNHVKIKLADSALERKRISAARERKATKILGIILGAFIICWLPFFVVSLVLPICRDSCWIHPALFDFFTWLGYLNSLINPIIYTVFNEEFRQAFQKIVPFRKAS
Sequence of Mu-type opioid receptor (P35372 whole entry): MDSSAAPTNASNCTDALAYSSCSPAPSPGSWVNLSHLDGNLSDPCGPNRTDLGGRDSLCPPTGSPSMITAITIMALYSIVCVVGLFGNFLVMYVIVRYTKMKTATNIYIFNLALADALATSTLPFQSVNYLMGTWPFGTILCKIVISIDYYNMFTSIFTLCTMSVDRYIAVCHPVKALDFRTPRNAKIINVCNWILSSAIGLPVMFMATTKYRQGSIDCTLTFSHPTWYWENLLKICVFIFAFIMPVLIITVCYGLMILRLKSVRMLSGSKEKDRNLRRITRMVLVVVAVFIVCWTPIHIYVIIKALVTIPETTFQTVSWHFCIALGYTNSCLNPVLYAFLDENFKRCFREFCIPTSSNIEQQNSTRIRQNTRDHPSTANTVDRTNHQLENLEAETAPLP

Consider `CCSc1cc(OC)c(CC(N)CC)cc1OC` (configuration not stated) [1-(4-Ethylsulfanyl-2,5-dimethoxy-benzyl)-propylamine], for which the inhibition constant (Ki) in experiment [1] was > 10 µM; in [2], > 10 µM; in [3], 9.88 µM; in experiment [4] it was > 10 µM; at Histamine H2 receptor, > 10 µM; in experiment [5], > 10 µM. In addition, the Ki (in experiment [6]; at D(1A) dopamine receptor; in experiment [7]; in experiment [8]; in [9]; at Histamine H4 receptor) was > 10 µM in each case. Further, the Ki (in experiment [10]; at Mu-type opioid receptor; on D(4) dopamine receptor; in experiment [11]; in experiment [12]; in experiment [13]) was > 10 µM in each case. At D(1B) dopamine receptor, the inhibition constant Ki was > 10 µM.
For `COc1ccc2[nH]cc(CCN(C(C)C)C(C)C)c2c1` [5-meo-dipt], the inhibitory constant (Ki) in [1] was > 10 µM; in [2], > 10 µM; in [3], > 10 µM; in [4] it was > 10 µM; at Histamine H2 receptor, > 10 µM; in [5] it was 2.53 µM. For the same molecule, the Ki (in experiment [6]; on D(1A) dopamine receptor; in experiment [7]; in experiment [8]; in [9]; at Histamine H4 receptor) was > 10 µM in each case. For the same molecule, the inhibition constant Ki in [10] was > 10 µM; at Mu-type opioid receptor, > 10 µM; at D(4) dopamine receptor, > 10 µM; in [11], > 10 µM; in experiment [12] it was 1.72 µM; in [13] it was > 10 µM. Moreover, the Ki on D(1B) dopamine receptor is > 10 µM.
With `COc1cc(CC(C)N)c(OC)cc1Br` (stereo not drawn) [2-(4-Bromo-2,5-dimethoxy-phenyl)-1-methyl-ethylamine((-)-DOB)], the inhibition constant (Ki) was > 10 µM in experiment [1]; > 10 µM in experiment [2]; 1.43 µM in experiment [3]; > 10 µM in experiment [4]; > 10 µM on Histamine H2 receptor; 8.54 µM in experiment [5]. In addition, the Ki (in experiment [6]; at D(1A) dopamine receptor; in experiment [7]; in experiment [8]; in [9]; on Histamine H4 receptor) was > 10 µM throughout. The inhibition constant (Ki) is > 10 µM in experiment [10]; > 10 µM on Mu-type opioid receptor; > 10 µM on D(4) dopamine receptor; 2.42 µM in experiment [11]; 0.635 µM in [12]; 5.53 µM in experiment [13]. Moreover, the inhibition constant (Ki) at D(1B) dopamine receptor is > 10 µM.

Broadly, the Ki is the dissociation constant of the complex between target and ligand, obtained from inhibition or displacement. The low end stands for higher affinity, the high end for lower affinity.
